In patent US20200323849A1, “COMBINATIONS OF HISTONE DEACETYLASE INHIBITORS AND IMMUNOMODULATORY DRUGS” (Acetylon Pharmaceuticals, Inc., priority 2013, published 2020):

Legend:
[1] = test system: acetylated tubulin (a marker of HDAC6 inhibition); assay: Phase 1b PD: acetylated tubulin in PBMC; type: in vivo, human; settings: at ≥80 mg Compound A
Method: (§4) In Part A of the trial, patients were treated with escalating doses of oral Compound A in combination with a standard dose and schedule of lenalidomide and dexamethasone on days 1-5 and 8-12 of a 28 day cycle. For example, the patients in cohort 1 received 40 mg of Compound A, 15 mg of Compound E, and 40 mg of dexamethasone per day; the patients in cohort 2 received 40 mg of Compound A, 25 mg of Compound E, and 40 mg of dexamethasone per day; the patients in cohort 3 received 80 mg of Compound A, 25 mg of Compound E, and 40 mg of dexamethasone per day; the patients in cohort 4 received 160 mg of Compound A, 25 mg of Compound E, and 40 mg of dexamethasone per day; and the patients in cohort 5 received 240 mg of Compound A, 25 mg of Compound E, and 40 mg of dexamethasone per day. […] For example, the patients in cohort 6 received 160 mg of Compound A, 25 mg of Compound E, and 40 mg of dexamethasone per day; the patients in cohort 7 received 160 mg of Compound A, 25 mg of Compound E, and 40 mg of dexamethasone twice daily; and the patients in cohort 8 received 240 mg of Compound A, 25 mg of Compound E, and 40 mg of dexamethasone twice daily. Peripheral blood samples were obtained for PK and PD analysis at specified time points.

[2] = Compound A monotherapy clinical trial (phase 1a)
Method: as §4

MM.1s myeloma cells [3] = assay: Cell cycle distribution by flow cytometry, propidium iodide (MM.1s); type: cell-based; settings: 3 and 5 days, Compound A 2 μM, Lenalidomide 2 μM, Pomalidomide 1 μM
Method: (§1) H929 (FIGS. 10A & 10B) or MM.1s (FIGS. 10C & 10D) myeloma cells were exposed to drug for 3 (FIGS. 10A & 10C) and 5 (FIGS. 10B & 10D) days and cell cycle distribution was assessed by flow cytometry via incorporation of propidium iodide. The relative fraction of cells in each stage of the cell cycle (GO/G1, S, and G2/M) as well as the fraction of dead cells (Sub G1) was then estimated.

H929 myeloma cells [4] = assay: Apoptosis by flow cytometry, Annexin V / propidium iodide (H929); type: cell-based; settings: H929, 5 and 7 days; Compound A 2 μM, Lenalidomide 2 μM, Pomalidomide 1 μM
Method: (§2) H929 (FIGS. 11A & 11B) or MM.1s (FIGS. 11C & 11D) myeloma cells were exposed to drug for 5 (FIGS. 11A & 11C) and 7 (FIGS. 11B & 11D) days, and apoptosis was assessed by flow cytometry by measuring Annexin V binding and cellular permeability to propidium iodide. The relative fraction of cells that were live, in early apoptosis, in late apoptosis, or dead was then determined.

H929 cells = assay: Immunoblot in H929 cells; type: cell-based
H929 myeloma cells [5] = assay: Cell cycle distribution by flow cytometry, propidium iodide (H929); type: cell-based; settings: H929, 3 and 5 days; Compound A 2 μM, Lenalidomide 2 μM, Pomalidomide 1 μM
Method: as §1

[6] = Phase 1b clinical trial: PK in peripheral blood samples
Method: as §4

[7] = test system: acetylated histones (a marker of class 1 HDAC inhibition); assay: Phase 1b PD: acetylated histones in PBMC; type: in vivo, human; settings: at ≥80 mg Compound A
Method: as §4

MM.1s myeloma cells [8] = assay: Apoptosis by flow cytometry, Annexin V / propidium iodide (MM.1s); type: cell-based; settings: 5 and 7 days, Compound A 2 μM, Lenalidomide 2 μM, Pomalidomide 1 μM
Method: as §2

[9] = human, in vivo
Method: as §4

HDAC1, 2, and 3 = assay: HDAC enzyme assays (HDAC1, 2, 3); type: biochemical
Method: (§3) Compounds for testing were diluted in DMSO to 50 fold the final concentration and a ten point three fold dilution series was made. The compounds were diluted in assay buffer (50 mM HEPES, pH 7.4, 100 mM KCl, 0.001% Tween-20, 0.05% BSA, 20 μM TCEP) to 6 fold their final concentration. The HDAC enzymes (purchased from BPS Biosciences) were diluted to 1.5 fold their final concentration in assay buffer. The tripeptide substrate and trypsin at 0.05 μM final concentration were diluted in assay buffer at 6 fold their final concentration. The final enzyme concentrations used in these assays were 3.3 ng/ml (HDAC1), 0.2 ng/ml (HDAC2), 0.08 ng/ml (HDAC3) and 2 ng/ml (HDAC6). The final substrate concentrations used were 16 μM (HDAC1), 10 μM (HDAC2), 17 μM (HDAC3) and 14 μM (HDAC6). Five μl of compound and 20 μl of enzyme were added to wells of a black, opaque 384 well plate in duplicate. Enzyme and compound were incubated together at room temperature for 10 minutes. Five μl of substrate was added to each well, the plate was shaken for 60 seconds and placed into a Victor 2 microtiter plate reader. The development of fluorescence was monitored for 60 min and the linear rate of the reaction was calculated. The IC50 was determined using Graph Pad Prism by a four parameter curve fit.

HDAC6 = molecular target: T1, HDAC6 (Homo sapiens, UniProt Q9UBN7); assay: HDAC enzyme assays (HDAC6 selectivity); type: biochemical
T1 construct: purchased BPS Biosciences
T1 sequence (Q9UBN7 1-1215): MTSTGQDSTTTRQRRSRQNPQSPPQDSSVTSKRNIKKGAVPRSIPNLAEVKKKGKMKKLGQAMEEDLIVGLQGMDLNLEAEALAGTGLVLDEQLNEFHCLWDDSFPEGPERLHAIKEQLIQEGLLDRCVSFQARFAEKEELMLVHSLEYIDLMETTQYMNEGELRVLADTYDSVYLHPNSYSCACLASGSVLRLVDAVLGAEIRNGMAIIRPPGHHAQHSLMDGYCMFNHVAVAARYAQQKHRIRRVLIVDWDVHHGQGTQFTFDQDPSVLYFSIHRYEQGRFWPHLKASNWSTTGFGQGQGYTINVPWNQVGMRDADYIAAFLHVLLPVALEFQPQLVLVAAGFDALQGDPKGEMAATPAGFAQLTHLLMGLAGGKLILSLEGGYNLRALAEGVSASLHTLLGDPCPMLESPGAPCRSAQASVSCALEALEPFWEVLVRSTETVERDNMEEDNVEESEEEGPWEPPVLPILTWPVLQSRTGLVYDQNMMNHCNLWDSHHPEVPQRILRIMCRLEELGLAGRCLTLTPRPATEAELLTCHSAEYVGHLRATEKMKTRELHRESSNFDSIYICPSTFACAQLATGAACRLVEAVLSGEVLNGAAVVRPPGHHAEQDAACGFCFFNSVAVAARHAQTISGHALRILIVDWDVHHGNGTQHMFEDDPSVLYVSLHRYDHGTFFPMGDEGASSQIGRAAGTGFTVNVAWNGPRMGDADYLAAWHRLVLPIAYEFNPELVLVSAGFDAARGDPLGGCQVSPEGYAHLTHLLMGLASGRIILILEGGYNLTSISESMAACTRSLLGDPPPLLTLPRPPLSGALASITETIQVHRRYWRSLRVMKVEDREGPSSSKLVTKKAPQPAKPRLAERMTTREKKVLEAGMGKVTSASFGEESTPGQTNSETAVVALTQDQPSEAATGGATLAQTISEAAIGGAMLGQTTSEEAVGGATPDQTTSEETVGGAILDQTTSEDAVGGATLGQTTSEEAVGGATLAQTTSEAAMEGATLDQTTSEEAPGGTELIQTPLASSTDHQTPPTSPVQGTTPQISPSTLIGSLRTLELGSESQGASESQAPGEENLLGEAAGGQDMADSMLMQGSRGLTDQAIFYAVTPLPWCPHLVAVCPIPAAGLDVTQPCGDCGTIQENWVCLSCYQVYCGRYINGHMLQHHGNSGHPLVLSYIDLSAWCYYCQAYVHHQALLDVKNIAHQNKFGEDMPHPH
Method: as §3, with “Five μl of compound and 20 μl of enzyme were added to wells of a black, opaque 384 well plate in duplicate.” left out

Structure (SMILES): O=C(CCCCCCNC(=O)c1cnc(N(c2ccccc2)c2ccccc2)nc1)NO [Compound A, 2-(diphenylamino)-N-(7-(hydroxyamino)-7-oxoheptyl) pyrimidine-5-carboxamide]
- increase in acetylated tubulin [1]: > 2 ×
- dose well-tolerated as a monotherapy (maximum dose examined) [2]: up to 360 mg/day
- cell cycle distribution (G0/G1, S, G2/M) (MM.1s myeloma cells [3]): small reduction
- percentage of apoptotic cells (H929 myeloma cells [4]): small increase in apoptosis
- acetylation of α-tubulin (inhibition of HDAC6) (H929 cells): hyperacetylation
- cell cycle distribution (G0/G1, S, G2/M) (H929 myeloma cells [5]): small reduction
- Maximal levels of Compound A ([6]; at ≥80 mg, coadministered with lenalidomide and dexamethasone): ≥ 1 µM
- PK for Compound A versus analogous dose levels in phase 1a monotherapy ([6]; coadministration of lenalidomide): similar
- increase in acetylated histones [7]: minimal increase
- percentage of apoptotic cells (MM.1s myeloma cells [8]): small increase in apoptosis
- dose limiting toxicities (DLTs) [9]: not observed

Structure (SMILES): O=C(CCCCCCNC(=O)c1cnc(N(c2ccccc2)c2ccccc2Cl)nc1)NO [Compound B, 2-((2-chlorophenyl)(phenyl)amino)-N-(7-(hydroxyamino)-7-oxoheptyl)pyrimidine-5-carboxamide]
- inhibition of HDAC1, 2, and 3 (HDAC1, 2, and 3): low level inhibition

Structure (SMILES): O=C(NO)c1cnc(NC2(c3cccc(F)c3)CCCCC2)nc1 [Compound C, 2-((1-(3-fluorophenyl)cyclohexyl)amino)-N-hydroxypyrimidine-5-carboxamide]
- selective for HDAC6 over class I HDAC's (HDAC6): more than 300 fold
